Source: paper PMC9516332 (Frontiers in Oncology, 2022)
Where two headings read alike, the source gives them in different places.

Experiments:
AP-1060 (ETV6-NTRK3) = test: Cell viability assay; conditions: read-out: IC50 in cell proliferation assay
134 cancer cell lines = test: Cell viability assay (ATPlite, 72 hours), IC50 on cancer cell line panel

Compound: CC(=O)Nc1cccc(-n2c(=O)n(C3CC3)c(=O)c3c(Nc4ccc(I)cc4F)n(C)c(=O)c(C)c32)c1 [trametinib]
- IC50 (AP-1060 (ETV6-NTRK3)): 0.291 µM
- IC50 (134 cancer cell lines; HEC-6, read-out: IC50 in cell proliferation assay, HEC-6 cell line (EGFR p.A289V)): > 31.6 µM
- IC50 (134 cancer cell lines; Homo sapiens, 769-P, read-out: IC50 in cell proliferation assay, cell line 769-P): 0.095 µM
- IC50 (134 cancer cell lines; Homo sapiens, 786-0, read-out: IC50 in cell proliferation assay, cell line 786-O): 0.042 µM
- IC50 (134 cancer cell lines; Homo sapiens, A 172, read-out: IC50 in cell proliferation assay, cell line A-172): 0.235 µM
- IC50 (134 cancer cell lines; Homo sapiens, A204, read-out: IC50 in cell proliferation assay, cell line A-204): 1.23 µM
- IC50 (134 cancer cell lines; Homo sapiens, A498, read-out: IC50 in cell proliferation assay, cell line A-498): 13.8 µM
- IC50 (134 cancer cell lines; Homo sapiens, A549, read-out: IC50 in cell proliferation assay, cell line A-549): 0.008 µM
- IC50 (134 cancer cell lines; Homo sapiens, A704, read-out: IC50 in cell proliferation assay, cell line A-704): > 28.2 µM
- IC50 (134 cancer cell lines; Homo sapiens, A-375, read-out: IC50 in cell proliferation assay, cell line A-375 (BRAF p.V600E)): 0.005 µM
- IC50 (134 cancer cell lines; Homo sapiens, A-427, read-out: IC50 in cell proliferation assay, cell line A-427): 0.00213 µM
- IC50 (134 cancer cell lines; Homo sapiens, ACHN, read-out: IC50 in cell proliferation assay, cell line ACHN): 0.006 µM
- IC50 (134 cancer cell lines; Homo sapiens, AN3-CA, read-out: IC50 in cell proliferation assay, cell line AN3-CA (FGFR2 p.N549K)): 0.05 µM
- IC50 (134 cancer cell lines; Homo sapiens, ASPC1, read-out: IC50 in cell proliferation assay, cell line AsPC-1): 0.014 µM
- IC50 (134 cancer cell lines; Homo sapiens, AU565, read-out: IC50 in cell proliferation assay, cell line AU565 (ERBB2 amplification)): > 28.2 µM
- IC50 (134 cancer cell lines; Homo sapiens, BT-20, read-out: IC50 in cell proliferation assay, cell line BT-20): > 28.2 µM
- IC50 (134 cancer cell lines; Homo sapiens, BT-474, read-out: IC50 in cell proliferation assay, cell line BT-474 (ERBB2 amplification)): > 31.6 µM
- IC50 (134 cancer cell lines; Homo sapiens, BT-549, read-out: IC50 in cell proliferation assay, cell line BT-549): 0.314 µM
- IC50 (134 cancer cell lines; Homo sapiens, BXPC-3, read-out: IC50 in cell proliferation assay, cell line BxPC-3): 0.038 µM
- IC50 (134 cancer cell lines; Homo sapiens, C-33-A, read-out: IC50 in cell proliferation assay, cell line C-33 A): 0.00442 µM
- IC50 (134 cancer cell lines; Homo sapiens, CAL-27, read-out: IC50 in cell proliferation assay, cell line CAL-27): 0.011 µM
- IC50 (134 cancer cell lines; Homo sapiens, CCF-STTG1, read-out: IC50 in cell proliferation assay, cell line CCF-STTG1): > 28.2 µM
- IC50 (134 cancer cell lines; Homo sapiens, CCRF-CEM, read-out: IC50 in cell proliferation assay, cell line CCRF-CEM): > 28.2 µM
- IC50 (134 cancer cell lines; Homo sapiens, COLO 205, read-out: IC50 in cell proliferation assay, cell line COLO 205 (BRAF p.V600E)): 0.004 µM
- IC50 (134 cancer cell lines; Homo sapiens, COLO-829, read-out: IC50 in cell proliferation assay, cell line COLO 829 (BRAF p.V600E)): 0.016 µM
- IC50 (134 cancer cell lines; Homo sapiens, DLD-1, read-out: IC50 in cell proliferation assay, cell line DLD-1): 0.507 µM
- IC50 (134 cancer cell lines; Homo sapiens, DU-4475, read-out: IC50 in cell proliferation assay, cell line DU4475 (BRAF p.V600E)): 0.01 µM
- IC50 (134 cancer cell lines; Homo sapiens, Daoy, read-out: IC50 in cell proliferation assay, cell line Daoy): 0.427 µM
- IC50 (134 cancer cell lines; Homo sapiens, DoTc2-4510, read-out: IC50 in cell proliferation assay, cell line DoTc2 4510): 0.008 µM
- IC50 (134 cancer cell lines; Homo sapiens, EOL1, read-out: IC50 in cell proliferation assay, cell line EoL-1 (FIP1L1-PDGFRA)): 0.008 µM
- IC50 (134 cancer cell lines; Homo sapiens, FaDu, read-out: IC50 in cell proliferation assay, cell line FaDu): 0.019 µM
- IC50 (134 cancer cell lines; Homo sapiens, G-361, read-out: IC50 in cell proliferation assay, cell line G-361 (BRAF p.V600E)): 0.00546 µM
- IC50 (134 cancer cell lines; Homo sapiens, HCC827, read-out: IC50 in cell proliferation assay, cell line HCC827 (EGFR exon19del)): 0.151 µM
- IC50 (134 cancer cell lines; Homo sapiens, HCC4006, read-out: IC50 in cell proliferation assay, cell line HCC4006 (EGFR exon19del)): 0.808 µM
- IC50 (134 cancer cell lines; Homo sapiens, HCT-15, read-out: IC50 in cell proliferation assay, cell line HCT 15): 1.74 µM
- IC50 (134 cancer cell lines; Homo sapiens, HCT-116, read-out: IC50 in cell proliferation assay, cell line HCT 116): 0.029 µM
- IC50 (134 cancer cell lines; Homo sapiens, HEC-1, read-out: IC50 in cell proliferation assay, HEC-1 cell line): 0.33 µM
- IC50 (134 cancer cell lines; Homo sapiens, HEC-1B, read-out: IC50 in cell proliferation assay, HEC-1-B cell line (EGFR p.A864V)): 0.00636 µM
- IC50 (134 cancer cell lines; Homo sapiens, HL-60, read-out: IC50 in cell proliferation assay, HL-60 cell line): 0.001 µM
- IC50 (134 cancer cell lines; Homo sapiens, HT, read-out: IC50 in cell proliferation assay, HT cell line): > 28.2 µM
- IC50 (134 cancer cell lines; Homo sapiens, HT-1080, read-out: IC50 in cell proliferation assay, HT-1080 cell line): 0.028 µM
- IC50 (134 cancer cell lines; Homo sapiens, Hs746T, read-out: IC50 in cell proliferation assay, Hs 746.T cell line (MET exon14skip + amplification)): 0.082 µM
- IC50 (134 cancer cell lines; Homo sapiens, Hs-578T, read-out: IC50 in cell proliferation assay, Hs 578T cell line): 0.211 µM
- IC50 (134 cancer cell lines; Homo sapiens, HuTu80, read-out: IC50 in cell proliferation assay, HuTu 80 cell line): 0.129 µM
- IC50 (134 cancer cell lines; Homo sapiens, J82, read-out: IC50 in cell proliferation assay, J82 cell line): > 28.2 µM
- IC50 (134 cancer cell lines; Homo sapiens, Jurkat E6.1, read-out: IC50 in cell proliferation assay, Jurkat E6.1 cell line): > 28.2 µM
- IC50 (134 cancer cell lines; Homo sapiens, K562, read-out: IC50 in cell proliferation assay, K-562 cell line): 0.022 µM
- IC50 (134 cancer cell lines; Homo sapiens, KATO III, read-out: IC50 in cell proliferation assay, KATO III cell line (FGFR2 amplification)): 0.142 µM
- IC50 (134 cancer cell lines; Homo sapiens, KG-1, read-out: IC50 in cell proliferation assay, KG-1 cell line (FGFR1OP2-FGFR1)): 0.009 µM
- IC50 (134 cancer cell lines; Homo sapiens, KLE, read-out: IC50 in cell proliferation assay, KLE cell line): > 28.2 µM
- IC50 (134 cancer cell lines; Homo sapiens, KMS-11, read-out: IC50 in cell proliferation assay, KMS-11 cell line (FGFR3 p.Y373C)): > 31.6 µM
- IC50 (134 cancer cell lines; Homo sapiens, KU812, read-out: IC50 in cell proliferation assay, Ku812 cell line): 0.013 µM
- IC50 (134 cancer cell lines; Homo sapiens, Kasumi 1, read-out: IC50 in cell proliferation assay, Kasumi-1 cell line (KIT p.N822K)): 0.029 µM
- IC50 (134 cancer cell lines; Homo sapiens, LC-2-ad, read-out: IC50 in cell proliferation assay, LC-2/ad cell line (CCDC6-RET)): 0.167 µM
- IC50 (134 cancer cell lines; Homo sapiens, LNCaP-Clone-FGC, read-out: IC50 in cell proliferation assay, LNCaP clone FGC cell line): > 28.2 µM
- IC50 (134 cancer cell lines; Homo sapiens, LS174T, read-out: IC50 in cell proliferation assay, LS174T cell line): 0.03 µM
- IC50 (134 cancer cell lines; Homo sapiens, LS-411N, read-out: IC50 in cell proliferation assay, LS411N cell line (BRAF p.V600E)): 0.009 µM
- IC50 (134 cancer cell lines; Homo sapiens, LoVo, read-out: IC50 in cell proliferation assay, LoVo cell line): 0.032 µM
- IC50 (134 cancer cell lines; Homo sapiens, MCF7, read-out: IC50 in cell proliferation assay, MCF-7 cell line): > 28.2 µM
- IC50 (134 cancer cell lines; Homo sapiens, MDA-MB-231, read-out: IC50 in cell proliferation assay, MDA-MB-231 cell line): 0.044 µM
- IC50 (134 cancer cell lines; Homo sapiens, MDA-MB-453, read-out: IC50 in cell proliferation assay, MDA-MB-453 cell line): 0.27 µM
- IC50 (134 cancer cell lines; Homo sapiens, MDA-MB-468, read-out: IC50 in cell proliferation assay, MDA-MB-468 cell line): 0.151 µM
- IC50 (134 cancer cell lines; Homo sapiens, MG-63, read-out: IC50 in cell proliferation assay, MG-63 cell line): 0.257 µM
- IC50 (134 cancer cell lines; Homo sapiens, MIA PaCa-2, read-out: IC50 in cell proliferation assay, MIA PaCa-2 cell line): 0.033 µM
- IC50 (134 cancer cell lines; Homo sapiens, MKN-45, read-out: IC50 in cell proliferation assay, MKN45 cell line (MET amplification)): 0.083 µM
- IC50 (134 cancer cell lines; Homo sapiens, MOLM-13, read-out: IC50 in cell proliferation assay, MOLM-13 cell line (FLT3 ITD)): 0.034 µM
